Results reported in US9486536B2 (Immunomedics, Inc., priority 2013, dated 2016).

Legend:
[1] = tested on: gastric (NCI-N87), pancreatic (Capan-1), and breast (MDA-MB-468) human cancer cell lines; experiment: 4-day MTS assay, potency of the conjugate; assay type: cell-based; details: range over NCI-N87, Capan-1 and MDA-MB-468
Procedure: Retention of antibody binding was confirmed by cell binding assays comparing binding of the conjugate to unconjugated antibody (Chari, 2008, Acc Chem Res 41:98-107). The potency of the conjugate was tested in a 4-day MTS assay using appropriate target cells.

[2] = tested on: NCI-N87 human gastric carcinoma xenografts; experiment: therapy of NCI-N87 xenografts in nude mice; assay type: in vivo; details: for mean tumor volume (mTV) on day 21: starting mTV 0.256 cm^3
Procedure: FIG. 3A. Therapy in nude mice bearing s.c. human tumor xenografts using 2.25 mg/kg protein dose (0.064 mg/kg of drug dose) of MAb-P2PDox conjugates twice weekly×2 weeks in nude mice (n=7) with NCI-N87 human gastric carcinoma xenografts.
Tumor size was determined by caliper measurements of length (L) and width (W) with tumor volume calculated as (L×W^2)/2. Tumors were measured and mice weighed twice a week. Mice were euthanized if their tumors reached >1 cm^3 in size, lost greater than 15% of their starting body weight, or otherwise became moribund. Statistical analysis for the tumor growth data was based on area under the curve (AUC) and survival time. Profiles of individual tumor growth were obtained through linear curve modeling. An f-test was employed to determine equality of variance between groups prior to statistical analysis of growth curves. A two-tailed t-test was used to assess statistical significance between all the various treatment groups and non-specific controls. For the saline control analysis a one-tailed t-test was used to assess significance. Survival studies were analyzed using Kaplan-Meier plots (log-rank analysis), using the Prism GraphPad Software (v4.03) software package (Advanced Graphics Software, Inc.; Encinitas, Calif.). All doses in preclinical experiments are expressed in antibody amounts. In terms of drug, 100 μg of antibody (5 mg/kg) in a 20-g mouse, for example, carries 1.4 μg-2.8 μg ([…]) of P2PDox equivalent dose when using an ADC with 3-6 drugs/IgG.
Using this dosing regimen, we examined the therapeutic effect of hRS7-P2PDox in 2 human tumor xenograft models, Capan-1 (pancreatic cancer) and NCI-N87 (gastric cancer). Therapy began 7 days after tumor transplantation in nude mice.
Anti-TROP-2 antibody conjugate, hRS7-P2PDox, was evaluated in nude mice bearing NCI-N87 human gastric cancer xenografts by administering a single bolus protein dose of 9 mg/kg, 6.75 mg/kg, 4.5 mg/kg, 2.25 mg/kg, or 1 mg/kg. The therapy was started when the mean tumor volume (mTV) was 0.256 cm^3.
Further in vivo efficacy studies were performed in nude mice implanted with NCI-N87 human gastric cancer xenografts (FIG. 13A-F).
The effect of varying dosage schedule on anti-tumor efficacy was examined (FIG. 14, FIG. 19A-G). The experiment began 9 days after tumor implantation when mean tumor volume for all groups was 0.383 cm^3, and ended on day 93 (84 days after initiation of therapy).

[3] = tested on: MDA-MB-468 human breast carcinoma xenografts; experiment: therapy of MDA-MB-468 xenografts in nude mice; assay type: in vivo
[4] = tested on: NCI-N87 gastric carcinoma cells; experiment: cell binding, conjugate vs unconjugated antibody; parameters: species or system human; details: 6 molecules of P2PDox per antibody (not shown)
[5] = serum stability, HIC HPLC; assay type: in vitro ADME; details: human serum, 0.2 mg/mL, 37° C.
Procedure: Serum stability of prototypical P2PDox conjugate, hRS7-P2PDox, was determined by incubating in human serum at a concentration of 0.2 mg/mL at 37° C.

[6] = tested on: HIV-1IIIB/MuLV infected splenocytes; experiment: HIV-1/MuLV infected cell challenge in mice; assay type: in vivo; details: doses of 100-200 μg
Procedure: P4/D10-P2PDox is tested in vitro for its efficacy in eliminating HIV-1-infected cells among non-infected cells and in a mouse model by removing HIV-1/MuLV (murine leukemia virus) infected syngeneic cells from the intraperitoneal cavity.
A human T-cell line, CEM-1B, with a genetically integrated MuLV genome is infected with HIV-1IIIB, which leads to the production of pseudoviruses with the HIV-1 genome and the MuLV envelope (Adang et al., PNAS USA 1999, 96:12749-753; Hinkula et al., Cells Tissues Organs 2004, 177:169-184). These virus supernatants are used to infect splenocytes from C57B1/6×DBA F1 K^b/d mice transgenic for HLA-A201. Isogenic mice are challenged with HIV-1IIIB/MuLV infected splenocytes i.p. and are immediately given conjugated antibodies or free antibodies i.p. Ten days after challenge, mice are sacrificed and peritoneal cells collected. Peritoneal cells are pelleted and added to 1×10^6 HIV susceptible Jurkat T-cells or human PBMC grown in 24-well plates. From these secondary cultures, supernatant is removed and fresh medium added every 3-4 days. The amount of infectious HIV recovered in the supernatant is measured for 3 weeks by p24 ELISA.
To test the efficacy of P4/D10-P2PDox in vivo, mice are given isogeneic HIV/MuLV-infected cells together with conjugates intraperitoneally.

[7] = tested on: BxPC3 human pancreatic carcinoma xenografts; experiment: therapy of BxPC3 xenografts in nude mice; assay type: in vivo
[8] = tested on: Capan-1 human pancreatic adenocarcinoma xenografts; experiment: therapy of Capan-1 xenografts in nude mice; assay type: in vivo
Procedure: FIG. 2. Therapy in nude mice bearing s.c. human tumor xenografts using 2.25 mg/kg protein dose (0.064 mg/kg of drug dose) of MAb-P2PDox conjugates twice weekly×2 weeks in nude mice with Capan-1 human pancreatic adenocarcinoma xenografts (n=5).
Tumors were measured and mice weighed twice a week.
At 63 days after Capan-1 tumor injection (with therapy starting at 1 days post-innoculation), 0 of 10 mice were alive in the saline control, 10 of 10 mice were alive in mice treated twice weekly×2 weeks with 45 μg of hPAM4-P2PDox, 2 of 10 mice were alive in mice treated twice weekly×2 weeks with 45 μg of hA20-P2PDox, 0 of 10 mice were alive in mice treated twice weekly×4 weeks with 250 μg of hPAM4-SN-38, and 0 of 10 mice were alive in mice treated twice weekly×4 weeks with 250 μg of h20-SN-38.

Substance: hRS7-P2PDox
- IC50 [1]: 0.35 to 1.09 nM
- mice alive at day 94 ([2]; 45 μg q4dx4): 8 of 9
- mice alive at day 94 ([2]; 90 μg weekly×2): 9 of 9
- effect of 2nd course of therapy ([2]; 2nd course administered after day 70): safely tolerated and led to further regressions of residual tumor
- effect on tumors, one treatment cycle ([2]; 4×45 μg): rapidly regressed all tumors
- effect of second treatment cycle ([2]; second cycle about 2 months after the end of the first cycle): complete regression of all but one
- minimum effective dose ([2]; single bolus protein dose): 2.25 mg/kg
- mean tumor volume (mTV) on day 21 ([2]; single bolus protein dose 2.25 mg/kg): 0.567±0.179 cm^3
- mean tumor volume (mTV) on day 21 ([2]; single bolus protein dose 4.5 mg/kg): 0.264±0.087 cm^3
- mean tumor volume (mTV) on day 21 ([2]; single bolus protein dose 9 mg/kg): 0.211±0.042 cm^3
- minimum single dose for significant survival benefit compared to saline control ([2]; single dose): 45 µg
- single dose giving maximum effect on tumor growth ([2]; single dose): ≥ 90 µg
- mice alive at day 94 ([2]; single dose of 180 μg): 78 of 9
- antitumor effects ([3]; 2.25 mg/kg protein dose twice weekly×2 weeks): specific and significant antitumor effects
- inhibition of growth compared with hRS7-SN-38 ([3]; not shown): slightly more effective
- binding of the antibody moiety vs unconjugated hRS7 [4]: No significant difference in binding
- release of free drug from the conjugate [5]: no release of free drug
- protection by control conjugates [6]: None of the P2PDox-conjugated control antibodies (hLL1 or hRS7) provide any protection
- inhibition of growth compared with hRS7-SN-38 ([7]; PxPC-3 pancreatic cancer (not shown)): substantially more effective
- antitumor effects ([7]; second pancreatic cancer xenograft, 2.25 mg/kg protein dose twice weekly×2 weeks): specific and significant antitumor effects
- established tumors regressed ([8]; 4 doses of 45 μg in 2 weeks, therapy began 7 days after transplantation, no re-growth): 100%
- inhibition of tumor growth compared with the SN-38 conjugate of the same antibody ([8]; not shown): more effective at inhibiting tumor growth
